Assay results reported in patent US10112899B2 (ViiV HEALTHCARE UK LIMITED, priority 2014, dated 2018).

system: HIV in the HTLV-1 transformed cell line MT-4; test: organism not typed; format: cell-based; conditions: MT4, 96 h, MT-4 cells; luciferase/cell titer glo readout after 96 hours; 10 point dose response

For `Cc1c(-c2c(C)c3c(c(C)c2[C@H](OC(C)(C)C)C(=O)O)CN(c2nnc(Cc4ccc(F)c(F)c4)o2)C3)cc(F)c2c1CCCO2` (atropisomer, axis not shown; (M)) [Example 203, (S)-2-(tert-butoxy)-2-((M)-2-(5-(3,4-difluorobenzyl)-1,3,4-oxadiazol-2-yl)-6-(8-fluoro-5-methylchroman-6-yl)-4,7-dimethylisoindolin-5-yl)acetic acid], which IC50 is on record?
Its IC50 is 63 nM.

`Cc1c(-c2c(C)c3c(c(C)c2[C@H](OC(C)(C)C)C(=O)O)CN(c2nc4cc(F)ccc4o2)C3)cc(F)c2c1CCCO2` (atropisomer, axis not shown; (M)) [Example 204, (S)-2-(tert-butoxy)-2-((M)-6-(8-fluoro-5-methylchroman-6-yl)-2-(5-fluorobenzo[d]oxazol-2-yl)-4,7-dimethylisoindolin-5-yl)acetic acid] was tested. Which IC50 did it give?
The IC50 was 665 nM.

`Cc1c(-c2c(C)c3c(c(C)c2[C@H](OC(C)(C)C)C(=O)O)CN(C(=O)N2CCCC[C@H]2C)C3)cc(F)c2c1CCCO2` (atropisomer, axis not shown; (M)) [Example 205, (S)-2-(tert-butoxy)-2-((M)-6-(8-fluoro-5-methylchroman-6-yl)-4,7-dimethyl-2-((M)-2-methylpiperidine-1-carbonyl)isoindolin-5-yl)acetic acid] was tested. Which IC50 did it give?
The IC50 was 4 nM.

For `Cc1c(-c2c(C)c3c(c(C)c2[C@H](OC(C)(C)C)C(=O)O)CN(C(=O)N2CCCC(C)(C)CC2)C3)cc(F)c2c1CCCO2` (atropisomer, axis not shown; (M)) [Example 206, (S)-2-(tert-butoxy)-2-((M)-2-(4,4-dimethylazepane-1-carbonyl)-6-(8-fluoro-5-methylchroman-6-yl)-4,7-dimethylisoindolin-5-yl)acetic acid], which IC50 is on record?
The IC50 was 5 nM.

With `Cc1c(-c2c(C)c3c(c(C)c2[C@H](OC(C)(C)C)C(=O)O)CN(C(=O)NCC(C)(C)C)C3)cc(F)c2c1CCCO2` (atropisomer, axis not shown; (M)) [Example 207, (S)-2-(tert-butoxy)-2-((M)-6-(8-fluoro-5-methylchroman-6-yl)-4,7-dimethyl-2-(neopentylcarbamoyl)isoindolin-5-yl)acetic acid] as the compound, how does the IC50 read?
Its IC50 is 4 nM.

For `Cc1c(-c2c(C)c3c(c(C)c2[C@H](OC(C)(C)C)C(=O)O)CN(C(=O)N2CCCC2)C3)cc(F)c2c1CCCO2` (atropisomer, axis not shown; (M)) [Example 208, (S)-2-(tert-butoxy)-2-((M)-6-(8-fluoro-5-methylchroman-6-yl)-4,7-dimethyl-2-(pyrrolidine-1-carbonyl)isoindolin-5-yl)acetic acid], which IC50 is on record?
Its IC50 is 4 nM.

With `Cc1c(-c2c(C)c3c(c(C)c2[C@H](OC(C)(C)C)C(=O)O)CN(C(=O)N2CCOC[C@@H]2C)C3)cc(F)c2c1CCCO2` (atropisomer, axis not shown; (M)) [Example 209, (S)-2-(tert-butoxy)-2-((M)-6-(8-fluoro-5-methylchroman-6-yl)-4,7-dimethyl-2-((S)-3-methylmorpholine-4-carbonyl)isoindolin-5-yl)acetic acid] as the compound, how does the IC50 read?
The IC50 was 23 nM.

`Cc1c(-c2c(C)c3c(c(C)c2[C@H](OC(C)(C)C)C(=O)O)CN(C(=O)Nc2cccc(F)c2)C3)cc(F)c2c1CCCO2` (atropisomer, axis not shown; (M)) [Example 210, (S)-2-(tert-butoxy)-2-((M)-6-(8-fluoro-5-methylchroman-6-yl)-2-((3-fluorophenyl)carbamoyl)-4,7-dimethylisoindolin-5-yl)acetic acid] was tested. Which IC50 did it give?
The IC50 was 14 nM.

How did the IC50 turn out when `Cc1c(-c2c(C)c3c(c(C)c2[C@H](OC(C)(C)C)C(=O)O)CN(C(=O)N2CCC(C)(C)CC2)C3)cc(F)c2c1CCCO2` (atropisomer, axis not shown; (M)) [Example 211, (S)-2-(tert-butoxy)-2-((M)-2-(4,4-dimethylpiperidine-1-carbonyl)-6-(8-fluoro-5-methylchroman-6-yl)-4,7-dimethylisoindolin-5-yl)acetic acid] was run?
The IC50 was 5 nM.

How did the IC50 turn out when `Cc1c(-c2c(C)c3c(c(C)c2[C@H](OC(C)(C)C)C(=O)O)CN(C(=O)N2CCC[C@@H]2C)C3)cc(F)c2c1CCCO2` (atropisomer, axis not shown; (M)) [Example 212, (S)-2-(tert-butoxy)-2-((M)-6-(8-fluoro-5-methylchroman-6-yl)-4,7-dimethyl-2-((S)-2-methylpyrrolidine-1-carbonyl)isoindolin-5-yl)acetic acid] was run?
The IC50 was 2 nM.

For `Cc1c(-c2c(C)c3c(c(C)c2[C@H](OC(C)(C)C)C(=O)O)CN(C(=O)N2CCC(F)(F)CC2)C3)cc(F)c2c1CCCO2` (atropisomer, axis not shown; (M)) [Example 213, (S)-2-(tert-butoxy)-2-((M)-2-(4,4-difluoropiperidine-1-carbonyl)-6-(8-fluoro-5-methylchroman-6-yl)-4,7-dimethylisoindolin-5-yl)acetic acid], which IC50 is on record?
The IC50 was 3 nM.

For `Cc1c(-c2c(C)c3c(c(C)c2[C@H](OC(C)(C)C)C(=O)O)CN(C(=O)N2CCC(C)(C)C2)C3)cc(F)c2c1CCCO2` (atropisomer, axis not shown; (M)) [Example 214, (S)-2-(tert-butoxy)-2-((M)-2-(3,3-dimethylpyrrolidine-1-carbonyl)-6-(8-fluoro-5-methylchroman-6-yl)-4,7-dimethylisoindolin-5-yl)acetic acid], which IC50 is on record?
Its IC50 is 3 nM.

How did the IC50 turn out when `Cc1c(-c2c(C)c3c(c(C)c2[C@H](OC(C)(C)C)C(=O)O)CN(C(=O)C(=O)N2CCCCC2)C3)cc(F)c2c1CCCO2` (atropisomer, axis not shown; (M)) [Example 215] was run?
The IC50 was 10 nM.

How did the IC50 turn out when `Cc1c(-c2c(C)c3c(c(C)c2[C@H](OC(C)(C)C)C(=O)O)CN(Cc2cccc4c2OCO4)C3)cc(F)c2c1CCCO2` (atropisomer, axis not shown; (M)) [Example 216, (S)-2-((M)-2-(benzo[d][1,3]dioxol-4-ylmethyl)-6-(8-fluoro-5-methylchroman-6-yl)-4,7-dimethylisoindolin-5-yl)-2-(tert-butoxy)acetic acid] was run?
The IC50 was 4 nM.

With `Cc1c(-c2c(C)c3c(c(C)c2[C@H](OC(C)(C)C)C(=O)O)CN(C(=O)Oc2ccccc2)C3)cc(F)c2c1CCCO2` (atropisomer, axis not shown; (M)) [Example 217, (S)-2-(tert-butoxy)-2-((M)-6-(8-fluoro-5-methylchroman-6-yl)-4,7-dimethyl-2-(phenoxycarbonyl)isoindolin-5-yl)acetic acid] as the compound, how does the IC50 read?
The IC50 was 12 nM.

How did the IC50 turn out when `Cc1c(-c2c(C)c3c(c(C)c2[C@H](OC(C)(C)C)C(=O)O)CN(S(=O)(=O)c2cccc(F)c2)C3)cc(F)c2c1CCCO2` (atropisomer, axis not shown; (M)) [Example 218, (S)-2-(tert-butoxy)-2-((M)-6-(8-fluoro-5-methylchroman-6-yl)-2-((3-fluorophenyl)sulfonyl)-4,7-dimethylisoindolin-5-yl)acetic acid] was run?
Its IC50 is 11 nM.

With `Cc1c(-c2c(C)c3c(c(C)c2[C@H](OC(C)(C)C)C(=O)O)CN(C(=O)c2cc(F)ccc2F)C3)cc(F)c2c1CCCO2` (atropisomer, axis not shown; (M)) [Example 285, (S)-2-(tert-butoxy)-2-((M)-2-(2,5-difluorobenzoyl)-6-(8-fluoro-5-methylchroman-6-yl)-4,7-dimethylisoindolin-5-yl)acetic acid] as the compound, how does the IC50 read?
The IC50 was 2 nM.

Which IC50 does the source give for `COc1ccc(C(=O)N2Cc3c(C)c(-c4cc(F)c5c(c4C)CCCO5)c([C@H](OC(C)(C)C)C(=O)O)c(C)c3C2)c(C)c1` (atropisomer, axis not shown; (M)) [Example 286, (S)-2-(tert-butoxy)-2-((M)-6-(8-fluoro-5-methylchroman-6-yl)-2-(4-methoxy-2-methylbenzoyl)-4,7-dimethylisoindolin-5-yl)acetic acid] here?
Its IC50 is 11 nM.

`Cc1c(-c2c(C)c3c(c(C)c2[C@H](OC(C)(C)C)C(=O)O)CN(C(=O)c2cccc(F)c2)C3)cc(F)c2c1NCCO2` (atropisomer, axis not shown; (M)) [Example 301, (S)-2-(tert-butoxy)-2-(6-((M)-8-fluoro-5-methyl-3,4-dihydro-2H-benzo[b][1,4]oxazin-6-yl)-2-(3-fluorobenzoyl)-4,7-dimethylisoindolin-5-yl)acetic acid] was tested. Which IC50 did it give?
The IC50 was 5 nM.

With `Cc1c(-c2c(C)c3c(c(C)c2[C@H](OC(C)(C)C)C(=O)O)CN(C(=O)N2CCC(F)(F)C2)C3)ccc2c1NCCO2` (atropisomer, axis not shown; (M)) [Example 312, (S)-2-(tert-butoxy)-2-((M)-2-(3,3-difluoropyrrolidine-1-carbonyl)-4,7-dimethyl-6-(5-methyl-3,4-dihydro-2H-benzo[b][1,4]oxazin-6-yl)isoindolin-5-yl)acetic acid] as the compound, how does the IC50 read?
Its IC50 is 6 nM.

Which IC50 does the source give for `Cc1ccc(-c2c(C)c3c(c(C)c2C(OC(C)(C)C)C(=O)O)CN(Cc2ccc(F)cc2)C3)cc1` (centres unmarked) [Example 1, 2-(tert-Butoxy)-2-(2-(4-fluorobenzyl)-4,7-dimethyl-6-(p-tolyl)isoindolin-5-yl)acetic acid] here?
The IC50 was 35 nM.

For `Cc1ccc(-c2c(C)c3c(c(C)c2[C@H](OC(C)(C)C)C(=O)O)CN(Cc2ccc(F)cc2)C3)cc1` [Example 2, (S)-2-(tert-Butoxy)-2-(2-(4-fluorobenzyl)-4,7-dimethyl-6-(p-tolyl)isoindolin-5-yl)acetic acid], which IC50 is on record?
Its IC50 is 36 nM.

How did the IC50 turn out when `Cc1ccc(-c2c(C)c3c(c(C)c2[C@H](OC(C)(C)C)C(=O)O)CN(Cc2cccc(F)c2F)C3)cc1` [Example 3, (S)-2-(tert-butoxy)-2-(2-(2,3-difluorobenzyl)-4,7-dimethyl-6-(p-tolyl)isoindolin-5-yl)acetic acid] was run?
Its IC50 is 40 nM.

For `Cc1ccc(-c2c(C)c3c(c(C)c2[C@H](OC(C)(C)C)C(=O)O)CN(C(=O)NC2CCCCC2)C3)cc1` [Example 4, (S)-2-(tert-Butoxy)-2-(2-(cyclohexylcarbamoyl)-4,7-dimethyl-6-(p-tolyl)isoindolin-5-yl)acetic acid], which IC50 is on record?
Its IC50 is 33 nM.

With `Cc1ccc(-c2c(C)c3c(c(C)c2[C@H](OC(C)(C)C)C(=O)O)CN(C(=O)N2CCCCC2)C3)cc1` [Example 7, (S)-2-(tert-butoxy)-2-(4,7-dimethyl-2-(piperidine-1-carbonyl)-6-(p-tolyl)isoindolin-5-yl)acetic acid] as the compound, how does the IC50 read?
The IC50 was 4 nM.

same assay, conditions: MT-4 cells; luciferase/cell titer glo readout after 96 hours; 10 point dose response

How did the IC50 turn out when `Cc1ccc(-c2c(C)c3c(c(C)c2C(OC(C)(C)C)C(=O)O)CN(S(=O)(=O)c2cccc4ccccc24)C3)cc1` (centres unmarked) [Example 5, 2-(tert-Butoxy)-2-(4,7-dimethyl-2-(naphthalen-1-ylsulfonyl)-6-(p-tolyl)isoindolin-5-yl)acetic acid] was run?
Its IC50 is 42 nM.
